Results as given in publication PMC4506051, “Pharmacokinetic Profiles of Active Ingredients and Its Metabolites Derived from Rikkunshito, a Ghrelin Enhancer, in Healthy Japanese Volunteers: A Cross-Over, Randomized Study” (PLoS ONE, 2015).

Columns and labels:
[1] = Exploratory trial: plasma concentration of rikkunshito ingredients after single oral rikkunshito 7.5 g; format: in vivo
Method: A random sequence was generated using a computer. The safety endpoint was evaluated in all volunteers.
(§1) In the first exploratory trial, 20-mL blood samples were collected from the cutaneous vein in the subjects’ forearm via a blood sampling tube that contained heparin at 0 (preadministration), 0.5, 1, 2, 4, and 8 h after a single oral administration of rikkunshito (Lot E24652). The dose of rikkunshito used in this trial was 7.5 g/day, which is the clinical daily dose, to widely explore rikkunshito-derived ingredients that enter the blood. Along with plasma, urine samples were collected at three points: between dinner and bedtime (preadministration), between 0 and 4 h after administration, and between 4 and 8 h after administration. The blood was immediately centrifuged at 1700 ×g for 10 min to obtain plasma. Plasma and urine fractions were stored at −80°C or lower until analysis.
(§2) For quantification of synephrine, 5 µL of standard solution or methanol was added to 100 µL plasma or urine samples followed by mixing. Ten microliters of erythromycin [internal standard (IS)] solution was added to the solutions followed by mixing and centrifugation (20,400 ×g, 5 min, 4°C). The supernatants were loaded onto an Ostro 96-well plate (Waters) and centrifuged (1500 ×g, 3 min, 4°C) followed by injection into the LC–MS/MS.
(§3) For quantification of 30 ingredients other than atractylodin and synephrine, 25 µL of standard solution or methanol was added to 500 µL plasma or urine samples followed by mixing. Atractylenolide III or digoxin (IS) solution (50 μL) was added to the solutions followed by mixing. For urine, 400 µL of blank plasma was added to the solutions. Ammonium acetate solution (100 mM, 100 or 400 µL) was added to the solutions followed by mixing. For enzymatic treatment, plasma and urine samples were incubated with β-glucuronidase (100 units in 100 mM ammonium acetate) for 2 h at 37°C. A solid-phase cartridge (OASIS HLB, 30 mg/1cc, Waters) was conditioned with methanol and 10 mM ammonium acetate solution, and the samples were loaded onto the cartridge. The cartridge was washed water : methanol (9:1, v/v), and 1.5 mL of methanol and 30 µL of propylene glycol were added to the cartridge to elute the analytes. The mixtures were dried at 25°C under a stream of nitrogen gas. Furthermore, 100 μL of 10 mM ammonium acetate : methanol (8:2, v/v) was added to the dried samples followed by mixing and sonication. The solutions were filtered (0.22 µm) and followed by injection into the LC–MS/MS system. […] Those analytical conditions are summarized in S2 Table and S3 Table.

[2] = Stability of ingredients in gastric pH solution (pH 1.2, 37°C); format: physicochemical
Method: Rikkunshito gradually dissolved in acidic solution (pH 1.2) at 37°C, and the concentration of atractylodin after adding 0.25, 0.5, 1, and 2 h was measured by gas chromatography–mass spectrometry.

[3] = Exploratory trial: amount of rikkunshito ingredients in urine; format: in vivo, human; settings: mean ± S.D., n = 4; for Amount in urine, 0–4 h: 0–4 h after single oral rikkunshito 7.5 g; for Amount in urine, 4–8 h: 4–8 h after single oral rikkunshito 7.5 g; for Amount in urine, Pre: preadministration (between dinner and bedtime)
Method: as §1, §2, §3

[4] = rikkunshito in acidic solution (pH 1.2) at 37°C, 0.5 h
[5] = rikkunshito in acidic solution (pH 1.2) at 37°C, 1 h
[6] = rikkunshito in acidic solution (pH 1.2) at 37°C, 2 h

Compound	concentration at 4 h ([1]; human, in vivo, po) [ng/mL]	Plasma concentration, 0 h ([1]; in vivo, po)	Plasma concentration, 0.5 h ([1]; in vivo, po)	Plasma concentration, 1 h ([1]; in vivo, po)	Plasma concentration, 2 h ([1]; in vivo, po)	Plasma concentration, 8 h ([1]; in vivo, po)	Stability in gastric pH solution, Quantitative value ([2]; 0.5 h, pH 1.2) [ng/mL]	Stability in gastric pH solution, Quantitative value ([2]; 1 h, pH 1.2) [ng/mL]	Stability in gastric pH solution, Quantitative value ([2]; 2 h, pH 1.2) [ng/mL]	Amount in urine, 0–4 h [3]	Amount in urine, 4–8 h [3] [ng]	Amount in urine, Pre [3]	Stability in gastric pH solution, Quantitative value [2, 4] [ng/mL]	Stability in gastric pH solution, Quantitative value [2, 5] [ng/mL]	Stability in gastric pH solution, Quantitative value [2, 6] [ng/mL]	other results
CC(C)=CCC[C@](C)(O[C@@H]1O[C@H](CO[C@@H]2O[C@H](CO)[C@@H](O)[C@H](O)[C@H]2O)[C@@H](O)[C@H](O)[C@H]1O)[C@H]1CC[C@]2(C)[C@@H]1[C@H](O)C[C@@H]1[C@@]3(C)CC[C@H](O[C@@H]4O[C@H](CO)[C@@H](O)[C@H](O)[C@H]4O[C@@H]4O[C@H](CO)[C@@H](O)[C@H](O)[C@H]4O)C(C)(C)[C@@H]3CC[C@]12C [Ginsenoside Rb1]	0.175 ± 0.118	BQL	BQL	BQL	BQL	BQL	297	202	86.4							
CC(C)=CCC[C@](C)(O[C@@H]1O[C@H](CO[C@@H]2OC[C@H](O)[C@H](O)[C@H]2O)[C@@H](O)[C@H](O)[C@H]1O)[C@H]1CC[C@]2(C)[C@@H]1[C@H](O)C[C@@H]1[C@@]3(C)CC[C@H](O[C@@H]4O[C@H](CO)[C@@H](O)[C@H](O)[C@H]4O[C@@H]4O[C@H](CO)[C@@H](O)[C@H](O)[C@H]4O)C(C)(C)[C@@H]3CC[C@]12C [Ginsenoside Rb2]							275	168	77.3	202 ± 202 ng	84.6 ± 90.1	BQL				
CC(C)=CCC[C@](C)(O[C@@H]1O[C@H](CO[C@@H]2O[C@@H](CO)[C@H](O)[C@H]2O)[C@@H](O)[C@H](O)[C@H]1O)[C@H]1CC[C@]2(C)[C@@H]1[C@H](O)C[C@@H]1[C@@]3(C)CC[C@H](O[C@@H]4O[C@H](CO)[C@@H](O)[C@H](O)[C@H]4O[C@@H]4O[C@H](CO)[C@@H](O)[C@H](O)[C@H]4O)C(C)(C)[C@@H]3CC[C@]12C [Ginsenoside Rc]	0.0303 ± 0.0605	BQL	BQL	BQL	BQL	BQL	188	115	39.3							
CC(C)=CCC[C@](C)(O[C@@H]1O[C@H](CO)[C@@H](O)[C@H](O)[C@H]1O)[C@H]1CC[C@]2(C)[C@@H]1[C@H](O)C[C@@H]1[C@@]3(C)CC[C@H](O[C@@H]4O[C@H](CO)[C@@H](O)[C@H](O)[C@H]4O[C@@H]4O[C@H](CO)[C@@H](O)[C@H](O)[C@H]4O)C(C)(C)[C@@H]3CC[C@]12C [Ginsenoside Rd]							98.5	68.1	20.3							Plasma concentration, 0 h ([1]; 0 h (preadministration), single oral rikkunshito 7.5 g, mean ± S.D., n = 4): BQL; Plasma concentration, 0.5 h ([1]; 0.5 h after single oral rikkunshito 7.5 g, mean ± S.D., n = 4): BQL; Plasma concentration, 2 h ([1]; 2 h after single oral rikkunshito 7.5 g, mean ± S.D., n = 4): BQL; Plasma concentration, 4 h ([1]; 4 h after single oral rikkunshito 7.5 g, mean ± S.D., n = 4): BQL; Plasma concentration, 8 h ([1]; 8 h after single oral rikkunshito 7.5 g, mean ± S.D., n = 4): BQL; concentration at 1 h ([1]; human, in vivo, 1 h after single oral rikkunshito 7.5 g, mean ± S.D., n = 4): 0.0308 ± 0.0615 ng/mL
CC(C)=CCC[C@](C)(O[C@@H]1O[C@H](CO)[C@@H](O)[C@H](O)[C@H]1O)[C@H]1CC[C@]2(C)[C@@H]1[C@H](O)C[C@@H]1[C@@]3(C)CC[C@H](O)C(C)(C)[C@@H]3[C@@H](O[C@@H]3O[C@H](CO)[C@@H](O)[C@H](O)[C@H]3O[C@@H]3O[C@@H](C)[C@H](O)[C@@H](O)[C@H]3O)C[C@]12C [Ginsenoside Re]							96.7	58.4	23.7	BQL	30.6 ± 61.2	BQL				
CC1(C)[C@@H](O[C@@H]2O[C@H](C(=O)O)[C@@H](O)[C@H](O)[C@H]2O)CC[C@]2(C)[C@H]3C(=O)C=C4[C@@H]5C[C@@](C)(C(=O)O)CC[C@]5(C)CC[C@@]4(C)[C@]3(C)CC[C@@H]12 [Glycyrrhetic acid 3-O-glucuronide, Glycyrrhetinic acid 3-O-glucuronide]		BQL	BQL	0.0448 ± 0.0895 ng/mL	0.244 ± 0.0735 ng/mL	0.247 ± 0.0622 ng/mL				BQL	6.94 ± 13.9	BQL				Plasma concentration, 4 h ([1]; in vivo, po): 0.327 ± 0.0656 ng/mL
CC1(C)CC[C@]2(C(=O)O)CC[C@]3(C)C(=CC[C@@H]4[C@@]5(C)CC[C@H](O)C(C)(C)[C@@H]5CC[C@]43C)[C@@H]2C1 [Oleanolic acid]	0.903 ± 0.983	BQL	BQL	BQL									3.61	3.54	3.28	concentration at 2 h ([1]; human, in vivo, po): 0.198 ± 0.395 ng/mL; concentration at 8 h ([1]; human, in vivo, po): 1.12 ± 0.89 ng/mL; Cmax ([1]; human, in vivo, rikkunshito 7.5 g, four subjects, highest mean concentration over 0–8 h, read-out: C max in plasma (exploratory trial)): 1.12 ng/mL
COc1ccc(-c2cc(=O)c3c(OC)c(OC)c(OC)c(OC)c3o2)cc1 [Tangeretin]		BQL		BQL	BQL	BQL	5.50	6.62	5.95							concentration at 0.5 h ([1]; human, in vivo, po): 0.00573 ± 0.0115 ng/mL; Plasma concentration, 4 h ([1]; in vivo, po): BQL
CCCCCCCCC[C@H](O)CC(=O)CCc1ccc(O)c(OC)c1 [[10]-gingerol, [10]-Gingerol]													8.07	7.53	7.62	
CC(C)=CCC[C@](C)(O)[C@H]1CC[C@]2(C)[C@@H]1[C@H](O)C[C@@H]1[C@@]3(C)CC[C@H](O)C(C)(C)[C@@H]3[C@@H](O[C@@H]3O[C@H](CO)[C@@H](O)[C@H](O)[C@H]3O[C@@H]3O[C@@H](C)[C@H](O)[C@@H](O)[C@H]3O)C[C@]12C [ginsenoside Rg2, Ginsenoside Rg2]													121	157	126	
